Columns and labels:
Type in all cases: cell-based
[1] = biological target: Delta-type opioid receptor (Homo sapiens, UniProt P41143); assay: Displacement of [3H]DADLE from delta opioid receptor expressed in CHO cells
[2] = biological target: Mu-type opioid receptor (Homo sapiens, UniProt P35372); assay: Displacement of [3H]DAMGO from mu opioid receptor expressed in CHO cells
[3] = biological target: Kappa-type opioid receptor (Homo sapiens, UniProt P41145); assay: Displacement of [3H]U69593 from kappa opioid receptor expressed in CHO cells
Chain of Kappa-type opioid receptor (P41145 whole entry): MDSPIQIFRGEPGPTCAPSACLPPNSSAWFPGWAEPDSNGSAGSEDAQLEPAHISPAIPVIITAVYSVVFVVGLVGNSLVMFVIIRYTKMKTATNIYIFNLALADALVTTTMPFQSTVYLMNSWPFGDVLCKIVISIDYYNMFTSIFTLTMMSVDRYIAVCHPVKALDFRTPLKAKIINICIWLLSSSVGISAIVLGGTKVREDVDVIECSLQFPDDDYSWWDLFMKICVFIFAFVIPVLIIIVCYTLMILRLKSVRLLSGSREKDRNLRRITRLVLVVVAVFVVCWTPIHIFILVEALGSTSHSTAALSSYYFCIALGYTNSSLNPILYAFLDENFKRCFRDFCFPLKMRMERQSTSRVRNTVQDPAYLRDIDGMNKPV

Chain of Mu-type opioid receptor (P35372 whole entry): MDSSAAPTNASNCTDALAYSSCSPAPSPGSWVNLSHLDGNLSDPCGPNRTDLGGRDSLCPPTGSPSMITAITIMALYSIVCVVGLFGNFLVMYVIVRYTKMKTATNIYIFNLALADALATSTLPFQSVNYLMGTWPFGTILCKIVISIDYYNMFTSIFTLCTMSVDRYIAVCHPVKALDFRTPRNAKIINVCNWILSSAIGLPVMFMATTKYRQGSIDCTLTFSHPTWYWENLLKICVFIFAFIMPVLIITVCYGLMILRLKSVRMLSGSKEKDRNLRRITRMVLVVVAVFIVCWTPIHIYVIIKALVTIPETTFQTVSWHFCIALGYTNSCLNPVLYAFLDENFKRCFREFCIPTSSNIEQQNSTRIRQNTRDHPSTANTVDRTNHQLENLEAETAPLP
Chain of Delta-type opioid receptor (P41143 whole entry): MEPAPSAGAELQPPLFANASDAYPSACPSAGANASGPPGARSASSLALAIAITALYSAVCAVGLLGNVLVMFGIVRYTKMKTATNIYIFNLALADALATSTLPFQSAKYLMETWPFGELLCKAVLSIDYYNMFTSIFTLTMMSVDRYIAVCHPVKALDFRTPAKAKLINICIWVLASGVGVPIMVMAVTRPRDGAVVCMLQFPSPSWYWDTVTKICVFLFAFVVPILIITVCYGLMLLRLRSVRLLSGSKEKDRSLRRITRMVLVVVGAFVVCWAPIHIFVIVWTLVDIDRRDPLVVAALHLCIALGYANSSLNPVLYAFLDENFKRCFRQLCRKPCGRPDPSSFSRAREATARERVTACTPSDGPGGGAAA

CC[C@@]12CCN(CC3CC3)C[C@@H]1Oc1c(O)cccc12 (racemic)
Ki [1]: 6150 nM | Ki [2]: 4670 nM | Ki [3]: 10000 nM

Oc1ccc2c(c1)C1CCN(CC3CC3)CC1O2 (stereo unspecified)
Ki [2]: 4 nM

CC[C@@]12CCN(CCc3ccccc3)C[C@@H]1Oc1ccc(O)cc12
Ki [1]: 75 nM | Ki [2]: 0.7 nM | Ki [3]: 88 nM

CN1CC[C@@]2(CCc3ccccc3)c3cccc(O)c3O[C@H]2C1 (racemic)
Ki [1]: > 4300 nM | Ki [2]: 740 nM | Ki [3]: 2880 nM

CC[C@@]12CCN(CCc3ccc(F)cc3)C[C@@H]1Oc1c(O)cccc12 (racemic)
Ki [1]: > 4500 nM | Ki [2]: 354 nM | Ki [3]: 935 nM

CC[C@@]12CCN(CCc3ccccc3)C[C@@H]1Oc1c(O)cccc12 (racemic)
Ki [1]: 7210 nM | Ki [2]: 1630 nM | Ki [3]: 2220 nM

CC[C@@]12CCN(CCc3ccc([N+](=O)[O-])cc3)C[C@@H]1Oc1c(O)cccc12 (racemic)
Ki [1]: 2260 nM | Ki [2]: 670 nM | Ki [3]: 720 nM

CC[C@@]12CCN(Cc3ccc(F)cc3)C[C@@H]1Oc1c(O)cccc12 (racemic)
Ki [1]: > 4500 nM | Ki [2]: > 2700 nM | Ki [3]: 3380 nM

CC[C@@]12CCN(C)C[C@@H]1Oc1c(O)cccc12 (racemic)
Ki [1]: 7480 nM | Ki [2]: 795 nM | Ki [3]: > 10000 nM

Oc1ccc2c(c1)C1CCN(CCc3ccccc3)CC1O2 (stereo unspecified)
Ki [2]: 0.9 nM

Source: ChEMBL document CHEMBL1157715, “Probes for narcotic receptor mediated phenomena. 40. N-substituted cis-4a-ethyl-1,2,3,4,4a,9a-hexahydrobenzofuro[2,3-c]pyridin-8-ols” (Bioorg Med Chem, 2010)
